How the values were obtained:
[1] = test system: conscious spontaneously hypertensive rats (SHRs); assay: Assay for antihypertensive activity (in vivo), telemetry; set-up: species or system rat; conditions: for Δ SBP in SHR (mmHg) 2-6 hrs / Δ SBP in SHR (mmHg) 21-24 hrs / Δ SBP in SHR (mmHg) 25-48 hrs / Δ SBP in SHR (mmHg) 12 hrs: delta versus own baseline
Method: Assay for Antihypertensive Activity (In Vivo)
The ability of the compounds of the invention to decrease blood pressure was evaluated in conscious spontaneously hypertensive rats (SHRs). SHRs (250-300 g) received a single oral dose of tested compounds. Systolic blood pressure (SBP) and heart rate were monitored by telemetry for […] after dosing. SBP was evaluated before (baseline) and at different time points (i.e. 2-6, 12, 21-24, 25-48 hours) following treatment by oral administration of the compounds. The data were processed both as the absolute value or as a delta between the absolute value and its own baseline.
The Dataquest IV telemetry system (Data Sciences International) was used for measurement of systolic pressure, diastolic pressure, mean arterial pressure, heart rate, and motor activity. The monitoring system consists of a transmitter (radio frequency transducer model TA11PA), receiver panel, consolidation matrix, and personal computer with accompanying software. Before the device was implanted, calibrations were verified to be accurate within ±3 mmHg. Rats were anesthetized with ketamine/xylazine/acepromazine, and the flexible catheter of the transmitter was surgically secured in the abdominal aorta just below the renal arteries. The transmitter was sutured subcutaneously. Rats were housed in individual cages after the operation. Each cage was placed over the receiver panel that was connected to the personal computer for data acquisition. The rats were unrestrained and free to move within their cages. Hemodynamic data were sampled every 2 minutes for 10 seconds.

[2] = test system: Human Embryonic Kidney (HEK293) cell; assay: cGMP accumulation assay; format: cell-based; conditions: intracellular cGMP, HEK293 cells, 30 min, with L-NAME, IBMX 100 μM and BAY 41-2272 1 μM
Method: The ability of the compounds of the invention to increase intracellular cGMP in comparison to vehicle was tested in vitro in Human Embryonic Kidney (HEK293) cell preparations. The method followed was as that reported in literature with minor modifications (Ongini et al., PNAS 2004; 101(22):8497-502. Ronchetti et al., Eur J. Pharmacol. 2006; 532(1-2):162-9).
Briefly, HEK293 cells were washed once with Hank's Balance Salt Solution (HESS) supplemented with HEPES (10 mM), MgCl2 (5 mM) and 0.05% ascorbic acid. Then they were pre-incubated for 20 min with a nitric oxide synthase inhibitor, N-nitro-L-arginine methyl ester (L-NAME) (300 μM) so to lower endogenous NO production. The cells were then exposed for 30 min to either vehicle (DMSO 1%) or increasing concentrations of test compounds (up to 100 μM) in presence of the phosphodiesterase inhibitor, 3-isobutyl-1-methylxanthine (IBMX, 100 μM) and the NO-independent activator/modulator of soluble guanylyl-cyclase, BAY 41-2272 (1 μM). The reaction was ended by the removal of the incubating buffer and the addition of 50 μl/well of 100% ice-cold ethanol. The plate was then dried under hot air steam and the cell residues dissolved, extracted and analysed using commercially available cyclic GMP enzyme immunoassay kit (Cayman Chemical, Ann Arbor, Mich., U.S.A.). Data obtained with the compounds of the present invention, expressed as % of vehicle at their respective maximal concentration (100 μM), are reported in Table 2.

[3] = test system: isolated rabbit thoracic aorta preparations; assay: Assay on vascular tone: vasorelaxation in isolated aortic rings precontracted with noradrenaline; format: cell-based; conditions: for EC50: Oryctolagus cuniculus, read-out: EC50 (μM) ± sem
Method: The ability of the compounds of the invention to induce vasorelaxation in comparison to precursor compounds, was tested in vitro in isolated rabbit thoracic aorta preparations (Wanstall J. C. et al., Br. J. Pharmacol., 134:463-472, 2001). Male New Zealand rabbits were anaesthetized with thiopental-Na (50 mg/kg, iv), sacrificed by exsanguinations and then the thorax was opened and the aorta dissected. Aortic ring preparations (4 mm in length) were set up in physiological salt solution (PSS) at 37° C. in small organ chambers (5 ml). The composition of PSS was (mM): NaCl 130, NaHCO3 14.9, KH2PO4 1.2, MgSO4 1.2, HEPES 10, […] (95% O2/5% CO2; pH 7.4). Each ring was mounted under 2 g passive tension. Isometric tension was recorded with a Grass transducer (Grass FT03) attached to a BIOPAC MP150 System. Preparations were allowed to equilibrate for 1 h, and then contracted submaximally with noradrenaline (NA, 1 μM) and, when the contraction was stable, acetylcholine (ACh, 10 μM) was added. A relaxant response to ACh indicated the presence of a functional endothelium. […] When a stable precontraction was reached, a cumulative concentration-response curve to either of the vasorelaxant agents was obtained in the presence of a functional endothelium. Each arterial ring was exposed to only one combination of inhibitor and vasorelaxant. Moreover, the effect of the soluble guanylyl cyclase inhibitor ODQ (1-H-(1,2,4)-oxadiazol(4,3-a)quinoxalin-1-one) on vasorelaxation elicited by the compounds was examined preincubating the aortic rings with ODQ (10 μM) for 20 min.
Responses to relaxing agents are expressed as a percentage of residual contraction and plotted against concentration of test compound. EC50 values (where EC50 is the concentration producing 50% of the maximum relaxation to the test compound) were interpolated from these plots. During the experimental period, the plateau obtained with NA was stable without significant spontaneous loss of contraction in the aortic rings.
Furthermore, in experiments performed in the presence of ODQ (10 μM), the vasorelaxant responses to tested compounds were inhibited.

[4] = vasorelaxation of rabbit aortic rings precontracted with noradrenaline 1 μM, functional endothelium

SMILES | % of vehicle (mean ± sem at 100 μM) [2] | EC50 [3, 4] [µM] | also measured
O=C(CCCC(CO[N+](=O)[O-])O[N+](=O)[O-])O[C@@H]1CO[C@H]2[C@@H]1OC[C@H]2O (stereo partly drawn) [Example 1, (3R,3aR,6R,6aR)-6-hydroxyhexahydrofuro[3,2-b]furan-3-yl 5,6-bis(nitrooxy)hexanoate] | 1029.6 ± 80.2 % of vehicle | 0.11 ± 0.03 | BP lowering compared to precursor compound (isomannide) ([1]; SHR, single oral dose, result in words): BP lowering with extended peak effect and duration of action; Δ SBP in SHR (mmHg) 2-6 hrs ([1]; single oral dose 4.4 mpk): −13 mmHg; Δ SBP in SHR (mmHg) 21-24 hrs ([1]; single oral dose 4.4 mpk): −20 mmHg; Δ SBP in SHR (mmHg) 25-48 hrs ([1]; single oral dose 4.4 mpk): −16 mmHg; Δ SBP in SHR (mmHg) 12 hrs ([1]; single oral dose 4.4 mpk): −16 mmHg
O=C(CCCCCO[N+](=O)[O-])O[C@@H]1CO[C@H]2[C@@H]1OC[C@H]2OC(=O)CCCCCO[N+](=O)[O-] [Example 2, (3R,3aR,6R,6aR)-hexahydrofuro[3,2-b]furan-3,6-diyl bis(6-(nitrooxy)hexanoate)] | 1082.67 ± 163.4 % of vehicle | 3.1 ± 0.9 | –
O=C(CCCCCO[N+](=O)[O-])O[C@@H]1CO[C@H]2[C@@H]1OC[C@H]2O [Example 3, (3R,3aR,6R,6aR)-6-hydroxyhexahydrofuro[3,2-b]furan-3-yl 6-(nitrooxy)hexanoate] | 677.83 ± 79.6 % of vehicle | 2.5 ± 0.6 | –
O=C(CCC[C@@H](CO[N+](=O)[O-])O[N+](=O)[O-])O[C@@H]1CO[C@H]2[C@@H]1OC[C@H]2O [Example 4] | 986.3 ± 90.0^ % of vehicle | 0.11 ± 0.02 | –
O=C(CCC[C@H](CO[N+](=O)[O-])O[N+](=O)[O-])O[C@@H]1CO[C@H]2[C@@H]1OC[C@H]2O [Example 5, (R)-((3R,3aR,6R,6aR)-6-hydroxyhexahydrofuro[3,2-b]furan-3-yl) 5,6-bis(nitrooxy)hexanoate] | 668 ± 64.7 % of vehicle | – | –
O=[N+]([O-])OCC(CCCCO[C@@H]1CO[C@H]2[C@@H]1OC[C@H]2O)O[N+](=O)[O-] (stereo partly drawn) [Example 6, 6-((3R,3aR,6R,6aR)-6-hydroxyhexahydrofuro[3,2-b]furan-3-yloxy)hexane-1,2-diyl dinitrate] | 1620 ± 205.0 % of vehicle | 0.91 ± 0.33 | –
O=C(O[C@@H]1CO[C@H]2[C@@H]1OC[C@H]2O)N1CCC(O[N+](=O)[O-])CC1 [Example 7, (3R,3aR,6R,6aR)-6-hydroxyhexahydrofuro[3,2-b]furan-3-yl 4-(nitrooxy)piperidine-1-carboxylate] | – | 4.4 ± 1.9 | –
CC(C)(CCOC(=O)O[C@@H]1CO[C@H]2[C@@H]1OC[C@H]2O)CC(CO[N+](=O)[O-])O[N+](=O)[O-] (stereo partly drawn) [Example 8, 3,3-dimethyl-5,6-bis(nitrooxy)hexyl (3R,3aR,6R,6aR)-6-hydroxyhexahydrofuro[3,2-b]furan-3-yl carbonate] | 564 ± 59.0 % of vehicle | 0.06 ± 0.01 | –
O=C(CCOCC(CO[N+](=O)[O-])O[N+](=O)[O-])O[C@@H]1CO[C@H]2[C@@H]1OC[C@H]2O (stereo partly drawn) [Example 13, (3R,3aR,6R,6aR)-6-hydroxyhexahydrofuro[3,2-b]furan-3-yl 3-(2,3-bis(nitrooxy)propoxy)propanoate] | 683 ± 86.3 % of vehicle | 0.1 ± 0.03 | –
O[C@@H]1CO[C@H]2[C@@H]1OC[C@H]2O [Isomannide, 1,4:3,6-dianhydro-D-mannitol, reference compound] | – | – | Δ SBP in SHR (mmHg) 2-6 hrs ([1]; single oral dose 2.4 mpk): −3 mmHg; Δ SBP in SHR (mmHg) 21-24 hrs ([1]; single oral dose 2.4 mpk): −6 mmHg; Δ SBP in SHR (mmHg) 25-48 hrs ([1]; single oral dose 2.4 mpk): −6 mmHg; Δ SBP in SHR (mmHg) 12 hrs ([1]; single oral dose 2.4 mpk): −9 mmHg; relaxation (concentration-response curve) ([3]; rabbit aortic rings precontracted with noradrenaline, result in words): does not produce relaxation at any of the concentration tested; EC50 (μM) ± sem [3, 4]: no effect
